{
  "source": "patent US5639887A",
  "about": "“MDR reversal agents” (priority 1995, dated 1997)",
  "tested_on": "human epidermoid carcinoma KB/8.5",
  "assay": "In vivo evaluation of MDR-1 reversal agents against human epidermoid carcinoma KB/8.5 implanted SC in athymic nude mice",
  "design": "species or system human (tumor in athymic nude mice)",
  "method": "The multiple drug resistant human epidermoid carcinoma KB/8.5 is propagated in medium containing colchicine (10 nanograms/ml) to maintain drug resistance. Colchicine is removed from the medium, for two cell passages, prior to subcutaneous (SC) implant of 8×10^6 KB/8.5 tumor cells into athymic \"nude\" mice (Harlan Sprague Dawley). […] Individual mouse tumor mass and mean tumor mass for each treatment group is determined on Day +14 and Day +21 of the test period. For each treatment group, the Relative Tumor Growth, RTG, is calculated as follows: [formula]\nStatistical analysis of Log Relative Tumor Growth is carried out using the Student t-test. Transformation of the data from absolute mean tumor mass (mgs tumor mass) to Log Relative Tumor Growth prior to statistical analysis has two beneficial effects:\n1) it corrects the data for differences in mean tumor mass of the different treatment groups at the start of the test period (Day 0); and\n2) the Log transformation of the data more adequately reflects the exponential growth pattern of the SC tumors and makes the use of the Student t-test more appropriate.",
  "key": {"[1]": {"settings": "doxorubicin 8 mg/kg IV + compound […] SC at -2 h and +2 h"}, "[2]": {"settings": "doxorubicin 8 mg/kg IV + compound 25 mg/kg/dose SC at -2 h and +2 h"}, "[3]": {"settings": "doxorubicin 8 mg/kg IV + compound 50 mg/kg/dose SC at -2 h and +2 h"}, "[4]": {"settings": "doxorubicin 8 mg/kg IV + compound 100 mg/kg/dose SC at -2 h and +2 h"}, "[5]": {"settings": "doxorubicin 8 mg/kg IV + compound 200 mg/kg/dose SC at -2 h and +2 h"}, "[6]": {"settings": "doxorubicin 8 mg/kg IV + compound 150 mg/kg/dose SC at -2 h and +2 h"}},
  "note": "Where a name gives a salt, the structure may show the parent alone.",
  "data": [
    {"smiles": "COc1ccc(C(C#N)(CCCCCN2Cc3cc(Cl)c(Cl)cc3C2)Sc2ccc(C)cc2)cc1OC", "note": "(stereo not shown) [Example 81]", "values": [
      {"measurement": "Relative Tumor Growth Day 21", "setting": "[1]", "value": 9.52}
    ]},
    {"smiles": "COc1cc2c(cc1OC)CN(CCCCCC(Sc1ccc(C)cc1)c1ccc(OC(F)(F)F)cc1)CC2", "note": "(stereo not shown) [Example 92, 1,2,3,4-Tetrahydro-6,7-dimethoxy-2-[6-[(4-methyl-phenyl]thio]-6-[trifluoromethoxy)phenyl]hexylisoquinoline]", "values": [
      {"measurement": "Relative Tumor Growth Day 21", "setting": "[2]", "value": 12.05},
      {"measurement": "Relative Tumor Growth Day 21", "setting": "[3]", "value": 11.75},
      {"measurement": "Relative Tumor Growth Day 21", "setting": "[4]", "value": 10.48},
      {"measurement": "Relative Tumor Growth Day 21", "setting": "[5]", "value": 8.71},
      {"measurement": "Relative Tumor Growth Day 21", "setting": "[1]", "value": 12.75}
    ]},
    {"smiles": "COc1ccc(CC2c3cc(OC)c(OC)cc3CCN2CCCCCC(C#N)(Sc2ccc(C)cc2)c2ccc(OC)c(OC)c2)cc1OC", "note": "(stereo not drawn) [Example 55, α-(3,4-Dimethoxyphenyl)-1-[(3,4-dimethoxyphenyl)-methyl]-3,4-dihydro-6,7-dimethoxy-α-[(4-methylphenyl)-thio]-2(1H)-isoquinolineheptanenitrile]", "values": [
      {"measurement": "Relative Tumor Growth Day 21", "setting": "[3]", "value": 12.20},
      {"measurement": "Relative Tumor Growth Day 21", "setting": "[4]", "value": 12.37},
      {"measurement": "Relative Tumor Growth Day 21", "setting": "[5]", "value": 7.15}
    ]},
    {"smiles": "COc1ccc(C(C#N)(CCCCCN2Cc3cc(OC)c(OC)cc3C2)Sc2ccc(C)cc2)cc1OC.Cl", "note": "(stereo not drawn) [Example 27, α-(3,4-Dimethoxyphenyl)-1,3-dihydro-5,6-dimethoxy-α-[(4-methylphenyl)thio]-2H-isoindole-2-heptanenitrile hydrochloride]", "values": [
      {"measurement": "Relative Tumor Growth Day 21", "setting": "[2]", "value": 10.30},
      {"measurement": "Relative Tumor Growth Day 21", "setting": "[3]", "value": 9.55},
      {"measurement": "Relative Tumor Growth Day 21", "setting": "[4]", "value": 6.39},
      {"measurement": "Relative Tumor Growth Day 14", "setting": "[6]", "value": "Toxic"},
      {"measurement": "Relative Tumor Growth Day 21", "setting": "[6]", "value": "Toxic"},
      {"measurement": "Relative Tumor Growth Day 21", "setting": "[1]", "value": 9.66}
    ]},
    {"smiles": "COc1ccc(C(CCCCCN2CCc3cc4c(cc3C2)OCO4)Sc2ccc(C)cc2)cc1OC", "note": "(stereo not shown) [Example 47]", "values": [
      {"measurement": "Relative Tumor Growth Day 21", "setting": "[2]", "value": 9.73},
      {"measurement": "Relative Tumor Growth Day 21", "setting": "[3]", "value": 16.54},
      {"measurement": "Relative Tumor Growth Day 21", "setting": "[4]", "value": 10.09},
      {"measurement": "Relative Tumor Growth Day 21", "setting": "[5]", "value": 11.04},
      {"measurement": "Relative Tumor Growth Day 21", "setting": "[1]", "value": 17.53}
    ]},
    {"smiles": "COc1cc2c(cc1OC)CN(CCCCCC(Sc1ccc(C)cc1)c1ccc3c(c1)OCO3)CC2", "note": "(stereo not shown) [Example 89]", "values": [
      {"measurement": "Relative Tumor Growth Day 21", "setting": "[2]", "value": 8.02},
      {"measurement": "Relative Tumor Growth Day 21", "setting": "[3]", "value": 9.40},
      {"measurement": "Relative Tumor Growth Day 21", "setting": "[4]", "value": 11.04},
      {"measurement": "Relative Tumor Growth Day 21", "setting": "[5]", "value": 6.04},
      {"measurement": "Relative Tumor Growth Day 21", "setting": "[1]", "value": 10.70}
    ]},
    {"smiles": "COc1cc2c(cc1OC)CN(CCCCCCC(Sc1ccc(C)cc1)c1ccc(OC)c(OCCn3ccnc3)c1)CC2", "note": "(stereo not shown) [Example 75, 1,2,3,4-Tetrahydro-2-[7-[3-[2-(1H-imidazol-1-yl)-ethoxy]-4-methoxyphenyl]-7-[(4-methylphenvl]thio]-heptyl-6,7-dimethoxyisoquinolinedihydrochloride]", "values": [
      {"measurement": "Relative Tumor Growth Day 21", "setting": "doxorubicin 8 mg/kg IV + compound 25 mg/kg/dose SC at -2 h and +2 h, listed as Ex-75, dihydrochloride", "value": 11.05},
      {"measurement": "Relative Tumor Growth Day 21", "setting": "doxorubicin 8 mg/kg IV + compound 50 mg/kg/dose SC at -2 h and +2 h, listed as Ex-75, dihydrochloride", "value": 9.12},
      {"measurement": "Relative Tumor Growth Day 21", "setting": "doxorubicin 8 mg/kg IV + compound 100 mg/kg/dose SC at -2 h and +2 h, listed as Ex-75, dihydrochloride", "value": 6.74},
      {"measurement": "Relative Tumor Growth Day 21", "setting": "doxorubicin 8 mg/kg IV + compound 200 mg/kg/dose SC at -2 h and +2 h, listed as Ex-75, dihydrochloride", "value": 7.70},
      {"measurement": "Relative Tumor Growth Day 21", "setting": "doxorubicin 8 mg/kg IV + compound […] SC at -2 h and +2 h, listed as Ex-75, dihydrochloride", "value": 14.21}
    ]},
    {"smiles": "COc1ccc(C(CCCCCN2CCc3cc(OC)c(OC)cc3C2)SC2CCCCC2)cc1OC", "note": "(stereo not shown) [Example 61, 2-[6-(Cyclohexylthio)-6-(3,4-dimethoxyphenyl)hexyl]-1,2,3,4-tetrahydro-6,7-dimethoxyisoquinoline]", "values": [
      {"measurement": "Relative Tumor Growth Day 21", "setting": "[3]", "value": 8.66},
      {"measurement": "Relative Tumor Growth Day 21", "setting": "[4]", "value": 6.86},
      {"measurement": "Relative Tumor Growth Day 21", "setting": "[1]", "value": 8.88}
    ]},
    {"smiles": "COc1ccc(C(C#N)(CCCCCN2CCc3cc(OC)c(OCCCl)cc3C2)Sc2ccc(C)cc2)cc1OC", "note": "(stereo not drawn) [Example 32, 7-(2-Chloroethoxy)-α-(3,4-dimethoxyphenyl)-3,4-dihydro 6-methoxy-α-[(4-methylphenyl)thio]-2(1H)-isoquinoline heptanenitrile]", "values": [
      {"measurement": "Relative Tumor Growth Day 21", "setting": "[2]", "value": 11.30},
      {"measurement": "Relative Tumor Growth Day 21", "setting": "[1]", "value": 19.93}
    ]},
    {"smiles": "COc1ccc(C(CCCCCN2CCc3cc(OC)c(OC)cc3C2)SC(C)(C)C)cc1OC", "note": "(stereo not shown) [Example 66, 2-[6-(3,4-Dimethoxyphenyl)-6[(1,1-dimethylethyl)thio]hexyl]-1,2,3,4-tetrahydro-6,7-dimethoxyisoquinoline]", "values": [
      {"measurement": "Relative Tumor Growth Day 21", "setting": "[4]", "value": 8.17},
      {"measurement": "Relative Tumor Growth Day 21", "setting": "[5]", "value": 7.07}
    ]}
  ]
}
